Experimental data reported in patent US20090215778A1, “Alpha-substituted Arylmethyl Piperazine Pyrazolo [1,5-alpha]Pyrimidine Amide Derivatives” (priority 2007, published 2009).

Assays:
HIV-1, NL4-3 strain = assay: Virus infection assay (virus entry and single-cycle infection); format: cell-based; settings: Human immunodeficiency virus 1, NL43, TZM-b1, read-out: Nl4
Outline: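 TZM-b1 cells (CD4, CXCR4, CCR5; LTR-driven lacZ/luciferase reporters) were infected with HIV-1 NL4-3 (MOI 0.01) with 80 μg/mL DEAE-dextran in the presence of test compound, 4 h at 37 °C before adding complete medium. Infection was quantified one day post-infection as chemiluminescent β-galactosidase signal.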

[1] = biological target: T1, HIV Env six-helix bundle (6HB) structure (Human immunodeficiency virus type 1 group M subtype B, UniProt P04579); assay: Six-helix bundle (6HB) assay; format: cell-based, HIV-1 (strain RF)
T1 construct: H9 cells chronically infected with HIV-1 (H9/HIV-1RF); endogenous in cells; host or cells: H9 cells chronically infected with HIV-1 strain RF (Env is made from the virus in the infected cells, not by transfection)
Outline: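 Chronically HIV-1 RF-infected H9 cells (12-40 days post-infection), 2.5×10^5 per well, were preincubated with compound for 30 min at 37 °C. sCD4 at 1 μg/mL was added for 1 h to trigger Env changes. 6HB-specific rabbit serum (1 h, 37 °C) was then added, followed by PE anti-rabbit (45 min, 4 °C), with flow cytometric fluorescence read-out.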

T1 sequence (P04579 32-519): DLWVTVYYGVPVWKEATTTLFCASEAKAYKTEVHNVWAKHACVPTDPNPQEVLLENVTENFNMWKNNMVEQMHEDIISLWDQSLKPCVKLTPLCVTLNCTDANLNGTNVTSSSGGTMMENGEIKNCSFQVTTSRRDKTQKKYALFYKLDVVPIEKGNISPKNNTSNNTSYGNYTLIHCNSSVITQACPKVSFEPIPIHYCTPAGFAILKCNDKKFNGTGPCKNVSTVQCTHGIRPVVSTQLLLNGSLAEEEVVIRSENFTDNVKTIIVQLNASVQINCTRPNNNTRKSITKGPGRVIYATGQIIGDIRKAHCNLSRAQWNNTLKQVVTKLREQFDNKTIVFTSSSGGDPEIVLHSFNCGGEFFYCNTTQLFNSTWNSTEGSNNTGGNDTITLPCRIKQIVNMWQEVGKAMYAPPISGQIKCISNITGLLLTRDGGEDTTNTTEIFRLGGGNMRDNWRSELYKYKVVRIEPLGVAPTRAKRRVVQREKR
T1 sequence (P04579 520-865): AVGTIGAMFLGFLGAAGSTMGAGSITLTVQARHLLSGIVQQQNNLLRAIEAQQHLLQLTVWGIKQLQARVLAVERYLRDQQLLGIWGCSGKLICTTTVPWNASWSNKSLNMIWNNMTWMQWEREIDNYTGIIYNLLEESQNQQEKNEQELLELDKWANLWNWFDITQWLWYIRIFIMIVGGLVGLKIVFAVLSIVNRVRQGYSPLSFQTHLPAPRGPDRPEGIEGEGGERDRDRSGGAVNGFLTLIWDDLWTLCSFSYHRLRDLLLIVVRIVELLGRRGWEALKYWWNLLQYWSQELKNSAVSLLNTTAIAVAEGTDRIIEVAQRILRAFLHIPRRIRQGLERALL

Row | SMILES | IC50 (HIV-1, NL4-3 strain) | IC50 [1]
1 | COc1ccc(-c2nc3c(C(=O)N4CCN(C(CO)c5ccccc5OC)C[C@H]4C)cnn3c(C(F)(F)F)c2C)cc1 (stereo partly drawn) [methanone, [(2R)-4-[2-hydroxy-1-(2-methoxyphenyl)ethyl]-2-methyl-1-piperazinyl][5-(4-methoxyphenyl)-6-methyl-7-(trifluoromethyl)pyrazolo[1,5-α]pyrimidin-3-yl]-] | < 1 µM | < 1 µM
2 | COc1ccc(-c2nc3c(C(=O)N4CCN(C(CO)c5cccs5)C[C@H]4C)cnn3c(C(F)(F)F)c2C)cc1 (stereo partly drawn) [methanone, [(2R)-4-[2-hydroxy-1-(2-thienyl)ethyl]-2-methyl-1-piperazinyl][5-(4-methoxyphenyl)-6-methyl-7-(trifluoromethyl)pyrazolo[1,5-α]pyrimidin-3-yl]-] | < 1 µM | < 1 µM
3 | COc1ccc(-c2nc3c(C(=O)N4CCN(C(CO)c5cccc(OC)c5)C[C@H]4C)cnn3c(C(F)(F)F)c2C)cc1 (stereo partly drawn) [methanone, [(2R)-4-[2-hydroxy-1-(3-methoxyphenyl)ethyl]-2-methyl-1-piperazinyl][5-(4-methoxyphenyl)-6-methyl-7-(trifluoromethyl)pyrazolo[1,5-α]pyrimidin-3-yl]-] | < 1 µM | < 1 µM
4 | COc1ccc(-c2nc3c(C(=O)N4CCN(C(CO)c5cccnc5)C[C@H]4C)cnn3c(C(F)(F)F)c2C)cc1 (stereo partly drawn) [methanone, [(2R)-4-[2-hydroxy-1-(3-pyridinyl)ethyl]-2-methyl-1-piperazinyl][5-(4-methoxyphenyl)-6-methyl-7-(trifluoromethyl)pyrazolo[1,5-α]pyrimidin-3-yl]-] | > 10.1 µM | < 1 µM
5 | COc1ccc(-c2nc3c(C(=O)N4CCN(C(CO)c5ccsc5)C[C@H]4C)cnn3c(C(F)(F)F)c2C)cc1 (stereo partly drawn) [methanone, [(2R)-4-[2-hydroxy-1-(3-thienyl)ethyl]-2-methyl-1-piperazinyl][5-(4-methoxyphenyl)-6-methyl-7-(trifluoromethyl)pyrazolo[1,5-α]pyrimidin-3-yl]-] | < 1 µM | < 1 µM
6 | COc1ccc(-c2nc3c(C(=O)N4CCN(C(CO)c5cnccc5OC)C[C@H]4C)cnn3c(C(F)(F)F)c2C)cc1 (stereo partly drawn) [methanone, [(2R)-4-[2-hydroxy-1-(4-methoxy-3-pyridinyl)ethyl]-2-methyl-1-piperazinyl][5-(4-methoxyphenyl)-6-methyl-7-(trifluoromethyl)pyrazolo[1,5-α]pyrimidin-3-yl]-] | < 1 µM | < 1 µM
7 | COc1ccc(-c2nc3c(C(=O)N4CCN(C(CO)c5ccc(OC)cc5)C[C@H]4C)cnn3c(C(F)(F)F)c2C)cc1 (stereo partly drawn) [methanone, [(2R)-4-[2-hydroxy-1-(4-methoxyphenyl)ethyl]-2-methyl-1-piperazinyl][5-(4-methoxyphenyl)-6-methyl-7-(trifluoromethyl)pyrazolo[1,5-α]pyrimidin-3-yl]-] | < 1 µM | < 1 µM
8 | COc1ccc(-c2nc3c(C(=O)N4CCN(C(CO)c5cc(C)cs5)C[C@H]4C)cnn3c(C(F)(F)F)c2C)cc1 (stereo partly drawn) [methanone, [(2R)-4-[2-hydroxy-1-(4-methyl-2-thienyl)ethyl]-2-methyl-1-piperazinyl][5-(4-methoxyphenyl)-6-methyl-7-(trifluoromethyl)pyrazolo[1,5-α]pyrimidin-3-yl]-] | < 1 µM | < 1 µM
9 | COc1ccc(-c2nc3c(C(=O)N4CCN(C(CO)c5ccc(OC)nc5)C[C@H]4C)cnn3c(C(F)(F)F)c2C)cc1 (stereo partly drawn) [methanone, [(2R)-4-[2-hydroxy-1-(6-methoxy-3-pyridinyl)ethyl]-2-methyl-1-piperazinyl][5-(4-methoxyphenyl)-6-methyl-7-(trifluoromethyl)pyrazolo[1,5-α]pyrimidin-3-yl]-] | < 1 µM | < 1 µM
10 | COc1ccc(-c2nc3c(C(=O)N4CCN(C(CO)c5ccccc5OC(F)(F)F)C[C@H]4C)cnn3c(C(F)(F)F)c2C)cc1 (stereo partly drawn) [methanone, [(2R)-4-[2-hydroxy-1-[2-(trifluoromethoxy)phenyl]ethyl]-2-methyl-1-piperazinyl][5-(4-methoxyphenyl)-6-methyl-7-(trifluoromethyl)pyrazolo[1,5-α]pyrimidin-3-yl]-] | 1.1 to 10 µM | 1.1 to 10 µM
11 | COc1ccc(-c2nc3c(C(=O)N4CCN(C(CO)c5ccccc5C(F)(F)F)C[C@H]4C)cnn3c(C(F)(F)F)c2C)cc1 (stereo partly drawn) [methanone, [(2R)-4-[2-hydroxy-1-[2-(trifluoromethyl)phenyl]ethyl]-2-methyl-1-piperazinyl][5-(4-methoxyphenyl)-6-methyl-7-(trifluoromethyl)pyrazolo[1,5-α]pyrimidin-3-yl]-] | < 1 µM | < 1 µM
12 | COc1ccc(-c2nc3c(C(=O)N4CCN(C(CO)c5cccc(N6CCNCC6)c5)C[C@H]4C)cnn3c(C(F)(F)F)c2C)cc1 (stereo partly drawn) [methanone, [(2R)-4-[2-hydroxy-1-[3-(1-piperazinyl)phenyl]ethyl]-2-methyl-1-piperazinyl][5-(4-methoxyphenyl)-6-methyl-7-(trifluoromethyl)pyrazolo[1,5-α]pyrimidin-3-yl]-] | > 10.1 µM | > 10.1 µM
13 | COc1ccc(-c2nc3c(C(=O)N4CCN(C(CO)c5cccc(N6CCCC6)c5)C[C@H]4C)cnn3c(C(F)(F)F)c2C)cc1 (stereo partly drawn) [methanone, [(2R)-4-[2-hydroxy-1-[3-(1-pyrrolidinyl)phenyl]ethyl]-2-methyl-1-piperazinyl][5-(4-methoxyphenyl)-6-methyl-7-(trifluoromethyl)pyrazolo[1,5-α]pyrimidin-3-yl]-] | < 1 µM | < 1 µM
14 | COc1ccc(-c2nc3c(C(=O)N4CCN(C(CO)c5cccc(N6CCOCC6)c5)C[C@H]4C)cnn3c(C(F)(F)F)c2C)cc1 (stereo partly drawn) [methanone, [(2R)-4-[2-hydroxy-1-[3-(4-morpholinyl)phenyl]ethyl]-2-methyl-1-piperazinyl][5-(4-methoxyphenyl)-6-methyl-7-(trifluoromethyl)pyrazolo[1,5-α]pyrimidin-3-yl]-] | 1.1 to 10 µM | 1.1 to 10 µM
15 | COc1ccc(-c2nc3c(C(=O)N4CCN(C(CO)c5cccc(S(C)(=O)=O)c5)C[C@H]4C)cnn3c(C(F)(F)F)c2C)cc1 (stereo partly drawn) [methanone, [(2R)-4-[2-hydroxy-1-[3-(methylsulfonyl)phenyl]ethyl]-2-methyl-1-piperazinyl][5-(4-methoxyphenyl)-6-methyl-7-(trifluoromethyl)pyrazolo[1,5-α]pyrimidin-3-yl]-] | > 10.1 µM | > 10.1 µM
16 | COc1ccc(-c2nc3c(C(=O)N4CCN(C(CO)c5cccc(OC(F)(F)F)c5)C[C@H]4C)cnn3c(C(F)(F)F)c2C)cc1 (stereo partly drawn) [methanone, [(2R)-4-[2-hydroxy-1-[3-(trifluoromethoxy)phenyl]ethyl]-2-methyl-1-piperazinyl][5-(4-methoxyphenyl)-6-methyl-7-(trifluoromethyl)pyrazolo[1,5-α]pyrimidin-3-yl]-] | < 1 µM | < 1 µM
17 | COc1ccc(-c2nc3c(C(=O)N4CCN(C(CO)c5cccc(C(F)(F)F)c5)C[C@H]4C)cnn3c(C(F)(F)F)c2C)cc1 (stereo partly drawn) [methanone, [(2R)-4-[2-hydroxy-1-[3-(trifluoromethyl)phenyl]ethyl]-2-methyl-1-piperazinyl][5-(4-methoxyphenyl)-6-methyl-7-(trifluoromethyl)pyrazolo[1,5-α]pyrimidin-3-yl]-] | 1.1 to 10 µM | < 1 µM
